Data set [1] concerns the target T1, CYP1A2 (Homo sapiens, UniProt P05177).
T1 sequence (P05177 1-516): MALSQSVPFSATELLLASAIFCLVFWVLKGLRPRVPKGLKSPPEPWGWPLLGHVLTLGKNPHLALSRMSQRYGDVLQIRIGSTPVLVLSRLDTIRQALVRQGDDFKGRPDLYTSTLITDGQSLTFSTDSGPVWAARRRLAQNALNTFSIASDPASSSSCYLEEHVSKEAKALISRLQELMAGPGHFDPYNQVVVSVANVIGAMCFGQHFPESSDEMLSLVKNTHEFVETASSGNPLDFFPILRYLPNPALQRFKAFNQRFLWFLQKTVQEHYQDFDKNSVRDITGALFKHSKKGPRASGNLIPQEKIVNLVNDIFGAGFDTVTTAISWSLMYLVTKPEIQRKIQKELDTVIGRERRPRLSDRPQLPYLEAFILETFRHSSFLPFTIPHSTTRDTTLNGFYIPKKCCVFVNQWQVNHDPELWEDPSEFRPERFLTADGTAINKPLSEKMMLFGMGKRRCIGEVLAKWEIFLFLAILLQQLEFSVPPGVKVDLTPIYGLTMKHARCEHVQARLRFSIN
The experiment in a line: Caffeine-N-demethylase assay with 14C-caffeine in human liver microsomes, IC50 determination. For orientation: Liver microsomes are a subcellular fraction often used to study metabolism.
Description: Incubation was conducted at 37°C in a metabolic incubator with a 60 cycles/min shaking rate. At the conclusion of 10 min incubation, the reaction was terminated by the addition of 10% TCA solution (50.0 µl). The incubation mixture was centrifuged at 4,000×g. An aliquot (300.0 µl) of the supernatant was applied to a 3.0 ml Sigma-Aldrich Superclean ENVI-Carbon solid phase extraction (SPE) tube (0.25 g, 80–100 mesh). […] The eluant was collected into a scintillation vial. After the addition of 15.0 ml scintillation cocktail, the radioactivity in the vial was counted in a liquid scintillation counter. The results were expressed as residual counts of the control incubation.
CYP 1A2 activity inhibition was plotted against log furanocoumarin concentration after normalizing the inhibition data from 0–100%. The resulting inhibition-concentration curves were fitted separately to a four-parameter logistic function to determine the IC50 values. Curve fitting was performed using the GraphPad Prism version 5.04 (GraphPad Software, San Diego, CA). The IC50 represented the concentration of the furanocoumarin chemical to evoke a half maximal inhibition of the CYP 1A2 activity.

In data set [2] the target is T1, CYP1A2. The experiment in a line: Pre-incubation time- and furanocoumarin concentration-dependent inhibition of caffeine metabolism in HLMs. The conditions noted are these: for KI: HLMs 1.2 mg/ml, pre-incubation with NADPH, CYP 1A2 inactivation.
Description: (§1) In the pre-incubation step, HLMs (1.2 mg/ml) were pre-incubated with different furanocoumarin concentrations in the presence of NADPH for various time periods at 37°C. […] The final incubation volume was 320.0 µl. At the conclusion of a 10 min incubation, the reaction was stopped by the addition of a 10% TCA solution. The incubation mixture was extracted by a SPE tube, and the radioactivity in the eluant was counted in a liquid scintillation counter as described earlier.
(§2) The observed in vitro rate constant (kobs) was calculated using the slopes of linear regression analyses from natural logarithm (Ln) percentage remaining activity against pre-incubation time plots. The maximum inactivation rate constant (kinact) was calculated using the non-linear regression analyses of plots of the inactivator concentrations against kobs values. […] The plotting was performed using the GraphPad Prism version 5.04 (GraphPad Software, San Diego, CA).
For data set [3] the following is noted: cited from earlier work.
Data set [4] addresses ethoxyresorufin-O-deethylase. Details: method as in Cai et al., 1993. The conditions noted are these: mice liver microsomes; ref Cai et al., 1993; cited from earlier work.
The target in data set [5] is benzo(a)pyrene hydroxylase. Details: method as in Tinel et al., 1987. The conditions noted are these: HLMs; ref Tinel et al., 1987; cited from earlier work.
Data set [6] deals with 7-ethoxycoumarin deethylase. Details: method as in Tinel et al., 1987. The conditions noted are these: HLMs; ref Tinel et al., 1987; cited from earlier work.
The conditions of data set [7]: cited from earlier work. The source holds these as a separate data set.
The nature of data set [8]: Caffeine pharmacokinetics in saliva/plasma of untreated human volunteers (baseline). The following applies: caffeine 200 mg single oral dose. It is filed as in vivo. As to the method:
Male human volunteers, between 21 and 30 years old and living in the Metro Vancouver area, were recruited for the study. The volunteers had to meet specific eligibility criteria: not smoking, use medication, consume alcohol heavily or have any health concerns which may affect the test results. […] The participants were also asked to refrain from consuming solid foods 3.0 h prior to the study. The study protocol was approved by the Simon Fraser University Office of Research Ethics with approval number 2012s0565 and registration number ISRCTN83028296.
This study adopted a non-randomized, single-blinded, and crossover design in which each subject acted as their own control ([Sheriffdeen et al., 2019]). […] In the ARFP extract treatment study, the same group of volunteers was used after a 4 days washout period. […] Saliva samples were collected at 0.5, 1.0, 1.5, 2.0, 2.5, 3.0, 4.0, 6.0, 8.0, 12.0, 24.0, 36.0, and 48.0 h post-dosing. All saliva samples were stored in the dark at freezing temperature until they were ready for extraction and HPLC-UV analysis.
The saliva samples were thawed at room temperature, mixed by vortexing for 30 s, and centrifuged for 10 min at 4,000×g. Exactly 200.0 µl aliquot of the saliva sample was removed and spiked with 100.0 µl of the internal standard (ISTD) benzotriazole (50.0 μg/ml). […]
The following pharmacokinetic parameters were determined: the Tmax (time to reach peak plasma level) and Cmax (concentration of peak plasma level) were determined by visual inspection. The AUC0-inf (area under plasma concentration-time curve from zero to infinity) was determined by non-compartmental analysis using the PK Solver software ([Zhang et al., 2010]). The AUC0-inf was determined using the log-linear trapezoidal rule from dosing time to last time point and extrapolated to infinity by dividing the last concentration with the elimination rate constant. The AUC ratio was calculated by dividing the AUC0-inf after ARFP extract pretreatment with the AUC0-inf before ARFP extract pretreatment.

In data set [9] the target is T1, CYP1A2.
Description: as §1, §2
Data set [10] has as its target human CYP 1A2 isozyme. Details: method as in Kang et al., 2011. The following applies: mechanism-based inhibition; ref Kang et al., 2011; cited from earlier work.
The conditions of data set [11]: rats, cited from earlier work.

The text below walks through data of PMC8116649 (Frontiers in Pharmacology, 2021).

Where two headings read alike, the source gives them in different places.

What is called IC50 is the concentration needed to halve the response being measured. What is called kinact is the maximal first-order rate at which the target is inactivated. Broadly, the Tmax is the time from dosing to the highest level. `COc1c2ccoc2cc2oc(=O)ccc12` [5-MOP, 5-methoxypsoralen]: the IC50 in data set [1] was 130 nM; in data set [4], 2300 nM. Besides, the KI in data set [2] stood at 3730 ± 3660 nM. In addition, the kinact in data set [2] (human, human liver microsomes, probe caffeine (6.4 µM non-labeled + 0.2 µCi 14C-caffeine)) was 0.00583 s⁻¹. The Tmax is 2.8 ± 0.8 h in data set [3] (PUVA patients, ref Shephard et al., 1999) and 3.0 ± 0.6 h in [3] (healthy humans, ref Stolk et al., 1981).
`COc1c2occc2cc2ccc(=O)oc12` [8-MOP, 8-methoxypsoralen]: the IC50 in data set [5] and in data set [6] was approximately 25000 nM each time. In addition, the KI in data set [2] worked out at 780 ± 320 nM.
In general, AUC refers to the area under the concentration-time curve, a measure of exposure. What is called Cmax is the maximum level reached in the sampled fluid or tissue. For `Cn1c(=O)c2c(ncn2C)n(C)c1=O` [Caffeine, caffeine], the AUC in data set [7] (12 human volunteers, 167 mg orally, ref Fuhr et al., 1993) was 28500 ± 14900 ng·h/mL; in [7] (healthy volunteers, 5 mg/kg dose, mean ± SD, ref Kamimori et al., 1995), 60800 ± 23700 ng·h/mL. The “Time to reach the peak concentration in the blood” value in data set [7] (single oral dose, ref Tang-Liu et al., 1983) is given as not above 1.0 h. The “Tmax UT” value in [8] (plasma (from saliva), untreated volunteers of the study group of that line) is given as 0.8 h. In data set [8] (male, human, plasma (calculated from saliva concentrations), po, 200 mg, untreated volunteers), the Cmax is 5100 ng/mL. For the same molecule, in data set [8] (male, human, plasma (calculated from saliva concentrations), po, 200 mg, untreated volunteers, read-out: AUC0-inf UT), the AUC(0-inf) is 33500 to 55800 ng·h/mL.
`COc1c2ccoc2c(OC)c2oc(=O)ccc12` [ISOP, isopimpinellin]: the results for the KI in data set [9] and in data set [10] were 4480 ± 560 nM and 1200 nM, respectively. Besides, the IC50 in data set [1] is 290 nM; in data set [4], 1900 nM. Further, the kinact in [10] is 0.34 min⁻¹. The Tmax in data set [11] (oral dose of C. monnieri herbal product, ref Li et al., 2014) is reported as 1.1 ± 0.3 h; in [11] (oral dose of Toddalia asiatica herbal product, ref Liu et al., 2012), 1.3 ± 0.3 h.
